Reference: patent US5916905A, “2,3-substituted pyridines for the treatment of inflammation” (G. D. Searle & Co., priority 1997, dated 1999)

Tests used:
[1] = molecular target: T1, COX-2 (Homo sapiens, UniProt P35354); test: COX-2 activity in vitro, recombinant human enzyme (PGE2 ELISA); format: biochemical; conditions: human (h); 10 μM arachidonic acid, 10-20 min pre-incubation; read-out: COX-2 ID50
T1 construct: A 2.0 kb fragment containing the coding region; made in house; host or cells: SF9 insect cells (baculovirus, pVL1393)
T1 sequence (P35354 18-604): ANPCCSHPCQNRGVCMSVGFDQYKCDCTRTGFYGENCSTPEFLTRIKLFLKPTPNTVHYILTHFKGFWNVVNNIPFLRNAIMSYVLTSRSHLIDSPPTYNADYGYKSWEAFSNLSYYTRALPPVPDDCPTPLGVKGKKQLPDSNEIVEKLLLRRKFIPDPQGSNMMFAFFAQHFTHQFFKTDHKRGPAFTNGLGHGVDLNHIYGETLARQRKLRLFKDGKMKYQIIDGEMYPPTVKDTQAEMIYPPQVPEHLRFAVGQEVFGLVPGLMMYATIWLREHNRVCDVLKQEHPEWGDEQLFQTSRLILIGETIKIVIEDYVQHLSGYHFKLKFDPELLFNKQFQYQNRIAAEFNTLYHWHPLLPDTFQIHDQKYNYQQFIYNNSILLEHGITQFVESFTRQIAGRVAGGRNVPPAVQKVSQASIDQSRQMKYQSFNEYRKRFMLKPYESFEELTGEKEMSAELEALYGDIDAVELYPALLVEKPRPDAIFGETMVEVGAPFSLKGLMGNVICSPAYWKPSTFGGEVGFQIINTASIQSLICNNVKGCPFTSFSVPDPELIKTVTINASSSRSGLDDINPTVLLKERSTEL
Method: (§1) The COX-2 inhibition activity of the compounds of this invention illustrated in the Examples was determined by the following methods.
(§2) Recombinant COX-1 and COX-2 were prepared as described by Gierse et al, [J. Biochem., 305, 479-84 (1995)]. A 2.0 kb fragment containing the coding region of either human or murine COX-1 or human or murine COX-2 was cloned into a BamH1 site of the baculovirus transfer vector pVL1393 (Invitrogen) to generate the baculovirus transfer vectors for COX-1 and COX-2 in a manner similar to the method of D. R. O'Reilly et al (Baculovirus Expression Vectors: A Laboratory Manual (1992)). Recombinant baculoviruses were isolated by transfecting 4 μg of baculovirus transfer vector DNA into SF9 insect cells (2×10^8) along with 200 ng of linearized baculovirus plasmid DNA by the calcium phosphate method. See M. D. Summers and G. E. Smith, A Manual of Methods for Baculovirus Vectors and Insect Cell Culture Procedures, Texas Agric. Exp. Station Bull. 1555 (1987). Recombinant viruses were purified by three rounds of plaque purification and high titer (10^7 -10^8 pfu/ml) stocks of virus were prepared. For large scale production, SF9 insect cells were infected in 10 liter fermentors (0.5×10^6 /ml) with the recombinant baculovirus stock such that the multiplicity of infection was 0.1. After 72 hours the cells were centrifuged and the cell pellet homogenized in Tris/Sucrose (50 mM: 25%, pH 8.0) containing 1% 3-[(3-cholamidopropyl)dimethylammonio]-1-propanesulfonate (CHAPS). The homogenate was centrifuged at 10,000×G for 30 minutes, and the resultant supernatant was stored at -80° C. before being assayed for COX activity.
(§3) b. Assay for COX-1 and COX-2 activity COX activity was assayed as PGE2 formed/μg protein/time using an ELISA to detect the prostaglandin released. CHAPS-solubilized insect cell membranes containing the appropriate COX enzyme were incubated in a potassium phosphate buffer (50 mM, pH 8.0) containing epinephrine, phenol, and heme with the addition of arachidonic acid (10 μM). Compounds were pre-incubated with the enzyme for 10-20 minutes prior to the addition of arachidonic acid. Any reaction between the arachidonic acid and the enzyme was stopped after ten minutes at 37° C./room temperature by transferring 40 μl of reaction mix into 160 μl ELISA buffer and 25 μM indomethacin. The PGE2 formed was measured by standard ELISA technology (Cayman Chemical).

[2] = molecular target: T2, COX-1 (Homo sapiens, UniProt P23219); test: COX-1 activity in vitro, recombinant human enzyme (PGE2 ELISA); format: biochemical; conditions: human (h); 10 μM arachidonic acid, 10-20 min pre-incubation; read-out: COX-1 ID50
T2 construct: A 2.0 kb fragment containing the coding region; made in house; host or cells: SF9 insect cells (baculovirus, pVL1393)
Method: as §1, §2, §3

T2 sequence (P23219 24-599): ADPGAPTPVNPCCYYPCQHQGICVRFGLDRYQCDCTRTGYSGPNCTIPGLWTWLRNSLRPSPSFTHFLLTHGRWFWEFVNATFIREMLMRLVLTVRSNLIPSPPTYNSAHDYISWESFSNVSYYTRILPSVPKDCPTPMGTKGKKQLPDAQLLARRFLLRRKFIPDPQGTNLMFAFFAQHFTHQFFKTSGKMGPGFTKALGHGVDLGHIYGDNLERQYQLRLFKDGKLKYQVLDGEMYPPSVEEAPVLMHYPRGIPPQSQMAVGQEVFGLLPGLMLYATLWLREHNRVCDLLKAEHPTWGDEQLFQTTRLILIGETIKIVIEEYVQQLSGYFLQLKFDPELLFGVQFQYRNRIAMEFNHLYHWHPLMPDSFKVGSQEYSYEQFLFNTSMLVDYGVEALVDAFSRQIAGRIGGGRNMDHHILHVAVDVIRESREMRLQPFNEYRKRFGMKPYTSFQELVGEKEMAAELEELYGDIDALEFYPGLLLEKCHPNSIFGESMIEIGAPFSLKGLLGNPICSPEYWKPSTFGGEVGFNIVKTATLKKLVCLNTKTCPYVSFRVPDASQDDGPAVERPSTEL

| SMILES | IC50 [1] | IC50 [2] |
| --- | --- | --- |
| CCCCOc1nc(-c2ccc(F)cc2)c(-c2ccc(S(C)(=O)=O)cc2)cc1C(C)O (racemic) [Example 43, (+/-) 2-Butoxy-6-(4-fluorophenyl)-α-methyl-5-[4-(methylsulfonyl)phenyl]pyridine-3-methanol] | 100 nM | 28000 nM |
| CCCCOc1nc(-c2ccc(F)cc2)c(-c2ccc(S(C)(=O)=O)cc2)cc1C(C)OC(=O)CCC (racemic) [Example 44, (+/-) 1-[2-Butoxy-6-(4-fluorophenyl)-5-[4-(methylsulfonyl)phenyl]pyridin-3-yl]ethylbutanoate] | 2000 nM | > 100000 nM |
| CS(=O)(=O)c1ccc(-c2ccc(Cl)nc2-c2ccc(F)cc2)cc1 [Example 1, 2-chloro-6-(4-fluorophenyl)-5-[4-(methylsulfonyl)phenyl]pyridine] | 29000 nM | > 100000 nM |
| CSc1ccc(-c2nc(SC)ccc2-c2ccc(S(C)(=O)=O)cc2)cc1 [Example 5, 5-[4-(Methylsulfonyl)phenyl]-2-methylthio-6-[4-(methylthio)phenyl]pyridine] | < 100 nM | > 100000 nM |
| CS(=O)(=O)c1ccc(-c2ccc(N=[N+]=[N-])nc2-c2ccc(F)cc2)cc1 [Example 6, 2-Azido-6-(4-fluorophenyl)-5-[4-(methylsulfonyl)phenyl]pyridine] | 2000 nM | > 100000 nM |
| CCCOc1nc(-c2ccc(F)cc2)c(-c2ccc(S(C)(=O)=O)cc2)cc1C#N [Example 10, 6-(4-Fluorophenyl)-5-[4-(methylsulfonyl)phenyl]-2-propoxypyridine-3-carbonitrile] | 200 nM | > 100000 nM |
| COc1ccc(-c2nc(OC)c(C#N)cc2-c2ccc(S(C)(=O)=O)cc2)cc1 [Example 11, 2-Methoxy-6-(4-methoxyphenyl)-5-[4-(methylsulfonyl)phenyl]pyridine-3-carbonitrile] | 400 nM | > 100000 nM |
| CN(C)c1nc(-c2ccc(F)cc2)c(-c2ccc(S(C)(=O)=O)cc2)cc1C#N [Example 12, 2-(Dimethylamino)-6-(4-fluorophenyl)-5-[4-(methylsulfonyl)phenyl]pyridine-3-carbonitrile] | 600 nM | > 100000 nM |
| CSc1nc(-c2ccc(F)cc2)c(-c2ccc(S(C)(=O)=O)cc2)cc1C#N [Example 13, 6-(4-Fluorophenyl)-5-[4-(methylsulfonyl)phenyl]-2-(methylthio)pyridine-3-carbonitrile] | 200 nM | > 100000 nM |
| CCCCOc1nc(-c2ccc(F)cc2)c(-c2ccc(S(C)(=O)=O)cc2)cc1C#N [Example 14, 2-Butoxy-6-(4-fluorophenyl)-5-[4-(methylsulfonyl)phenyl]pyridine-3-carbonitrile] | < 100 nM | > 100000 nM |
| CS(=O)(=O)c1ccc(-c2cc(C#N)c(OCc3ccccc3)nc2-c2ccc(F)cc2)cc1 [Example 15, 6-(4-Fluorophenyl)-5-[4-(methylsulfonyl)phenyl]-2-(phenylmethoxy)pyridine-3-carbonitrile] | < 100 nM | > 100000 nM |
| CNc1nc(-c2ccc(F)cc2)c(-c2ccc(S(C)(=O)=O)cc2)cc1C#N [Example 16, 6-(4-Fluorophenyl)-2-(methylamino)-5-[4-(methylsulfonyl)phenyl]pyridine-3-carbonitrile] | 2300 nM | > 100000 nM |
| C=CCOc1nc(-c2ccc(F)cc2)c(-c2ccc(S(C)(=O)=O)cc2)cc1C#N [Example 17, 6-(4-Fluorophenyl)-5-[4-(methylsulfonyl)phenyl]-2-[(2-propenyl)oxy]pyridine-3-carbonitrile] | < 100 nM | > 100000 nM |
| CCCCCCOc1nc(-c2ccc(F)cc2)c(-c2ccc(S(C)(=O)=O)cc2)cc1C#N [Example 18, 6-(4-Fluorophenyl)-2-hexyloxy-5-[4-(methylsulfonyl)phenyl]pyridine-3-carbonitrile] | 200 nM | > 100000 nM |
| CCCCCOc1nc(-c2ccc(F)cc2)c(-c2ccc(S(C)(=O)=O)cc2)cc1C#N [Example 24, 6-(4-Fluorophenyl)-5-[4-(methylsulfonyl)phenyl]-2-pentoxypyridine-3-carbonitrile] | < 100 nM | > 100000 nM |
| CC(C)=CCOc1nc(-c2ccc(F)cc2)c(-c2ccc(S(C)(=O)=O)cc2)cc1C#N [Example 25] | 100 nM | > 100000 nM |
| CS(=O)(=O)c1ccc(-c2cc(C#N)c(OCCCC(F)(F)F)nc2-c2ccc(F)cc2)cc1 [Example 27, 6-(4-Fluorophenyl)-5-[4-(methylsulfonyl)phenyl]-2-(4,4,4-trifluorobutoxy)pyridine-3-carbonitrile] | 200 nM | > 100000 nM |
| CCCCOc1nc(-c2ccc(F)cc2)c(-c2ccc(S(N)(=O)=O)cc2)cc1C#N [Example 28, 4-[6-butoxy-4-cyano-2-(4-Fluorophenyl)-3-pyridine]benzenesulfonamide] | < 100 nM | 200 nM |
| CCCCOc1nc(-c2ccc(F)cc2)c(-c2ccc(S(C)(=O)=O)cc2)cc1CO [Example 29, 2-Butoxy-6-(4-fluorophenyl)-5-[4-(methylsulfonyl)phenyl]pyridine-3-methanol] | < 100 nM | > 100000 nM |
| CCCCOc1nc(-c2ccc(F)cc2)c(-c2ccc(S(C)(=O)=O)cc2)cc1C(F)F [Example 31, 2-Butoxy-3-difluoromethyl-6-(4-fluorophenyl)-5-[4-(methylsulfonyl)phenyl]pyridine] | < 100 nM | > 100000 nM |
| CCCCOc1nc(-c2ccc(F)cc2)c(-c2ccc(S(C)(=O)=O)cc2)cc1CN [Example 32, 2-Butoxy-6-(4-fluorophenyl)-5-[4-(methylsulfonyl)phenyl]pyridine-3-methylamine] | 1600 nM | > 100000 nM |
| CCCCOc1nc(-c2ccc(F)cc2)c(-c2ccc(S(C)(=O)=O)cc2)cc1CNC(C)=O [Example 33] | 1400 nM | > 100000 nM |
| CCCCOc1nc(-c2ccc(F)cc2)c(-c2ccc(S(C)(=O)=O)cc2)cc1CN(C)C [Example 37, 2-Butoxy-6-(4-fluorophenyl)-N,N-dimethyl-5-[4-(methylsulfonyl)phenyl]pyridine-3-methanamine] | 800 nM | > 100000 nM |
| CCCCOc1nc(-c2ccc(F)cc2)c(-c2ccc(S(C)(=O)=O)cc2)cc1COC(C)=O [Example 39, 2-Butoxy-6-(4-fluorophenyl)-5-[4-(methylsulfonyl)phenyl]pyridine-3-methanol, acetate] | 100 nM | > 100000 nM |
| CCCCOc1nc(-c2ccc(F)cc2)c(-c2ccc(S(C)(=O)=O)cc2)cc1COC(=O)CCC [Example 40, [2-Butoxy-6-(4-fluorophenyl)-5-[4-(methylsulfonyl)phenyl]pyridin-3-yl]methylbutanoate] | 100 nM | > 100000 nM |
| CCCCOc1nc(-c2ccc(F)cc2)c(-c2ccc(S(C)(=O)=O)cc2)cc1COC(=O)C(C)(C)C [Example 41, [2-Butoxy-6-(4-fluorophenyl)-5-[4-(methylsulfonyl)phenyl]pyridin-3-yl]methyl-2,2-propanoate] | > 100000 nM | > 100000 nM |
| CCCCOc1nc(-c2ccc(F)cc2)c(-c2ccc(S(C)(=O)=O)cc2)cc1CNC [Example 42, 2-Butoxy-6-(4-fluorophenyl)-N-methyl-5-[4-(methylsulfonyl)phenyl]pyridine-3-methanamine] | 3000 nM | > 100000 nM |
